Measured values from patent US20090082456A1, “SOLUBLE EPOXIDE HYDROLASE INHIBITORS” (Arete Therapeutics, Inc., priority 2007, published 2009).

Experiments:
[1] = test system: soluble epoxide hydrolase (sEH); experiment: Fluorescent assay for mouse and human soluble epoxide hydrolase (CMNPC substrate); assay type: biochemical
Source text: Recombinant mouse sEH (MsEH) and human sEH (HsEH) were produced in a baculovirus expression system as previously reported. Grant et al., J. Biol. Chem., 268:17628-17633 (1993); Beetham et al., Arch. Biochem. Biophys., 305:197-201 (1993). The expressed proteins were purified from cell lysate by affinity chromatography. Wixtrom et al., Anal. Biochem., 169:71-80 (1988). Protein concentration was quantified using the Pierce BCA assay using bovine serum albumin as the calibrating standard. The preparations were at least 97% pure as judged by SDS-PAGE and scanning densitometry. They contained no detectable esterase or glutathione transferase activity which can interfere with the assay. The assay was also evaluated with similar results in crude cell lysates or homogenate of tissues. The IC50s for each inhibitor were according to the following procedure: Cyano(2-methoxynaphthalen-6-yl)methyl (3-phenyloxiran-2-yl)methyl carbonate (CMNPC; Jones P. D. et. al.; Analytical Biochemistry 2005; 343: pp. 66-75) Bis/Tris HCl 25 mM pH 7.0 containing 0.1 mg/mL of BSA (buffer A) Mother solution of enzyme in buffer A (Mouse sEH at 6 μg/mL and Human sEH at 5 μg/mL). Inhibitor dissolved in DMSO at the appropriate concentration. In a black 96 well plate, fill all the wells with 150 μL of buffer A. Add 2 μL of DMSO in well A2 and A3, and then add 2 μL of inhibitor solution in A1 and A4 through A12. Add 150 μL of buffer A in row A, then mix several time and transfer 150 μL to row B. Repeat this operation up to row H. The 150 μL removed from row H go to the trash. Add 20 μL of buffer A in column 1 and 2, then add 20 μL of enzyme solution to column 3 to 12. Incubate the plate for 5 minutes in the plate reader at 30° C. During incubation prepare the working solution of substrate by mixing 3.68 mL of buffer A (4×0.920 mL) with 266 μL (2×133 μL) of substrate solution). At t=0, add 30 μL of working substrate solution with multi-channel pipette labeled “Briggs 303” and start the reading ([S]final: 5 μM). Read with ex: 330 nm (20 nm) and em: 465 nm (20 nm) every 30 second for 10 minutes. The velocities are used to analyze and calculate the IC50s.

| % Inh ([1]; Conc 1000 nM) [%] | melting point [°C] | % Inh ([1]; Conc 200 nM) [%] | % Inh ([1]; Conc 2000 nM) [%] | SMILES |
| --- | --- | --- | --- | --- |
| 98 | > 300 |  |  | CC(=O)NC1CCC(NC(=O)NC23CC4CC(CC(C4)C2)C3)CC1 (stereo not shown) [Compound 2, N-(4-(3-(adamantan-1-yl)ureido)cyclohexyl)acetamide] |
|  | 296 to 299 | 98 |  | O=C(Nc1ccc(F)cc1)NC1CCC(NS(=O)(=O)c2cccc(C(F)(F)F)c2)CC1 (stereo not shown) [Compound 3, N-(4-(3-(4-fluorophenyl)ureido)cyclohexyl)-3-(trifluoromethyl)benzenesulfonamide] |
|  | 237 to 239 | 99 |  | CS(=O)(=O)NC1CCC(NC(=O)Nc2ccc(C(F)(F)F)cc2)CC1 (stereo not shown) [Compound 6, N-(4-(3-(4-(trifluoromethyl)phenyl)ureido)cyclohexyl)methanesulfonamide] |
|  |  | 93 |  | CC(=O)NC1CCC(NC(=O)Nc2ccc(C(F)(F)F)cc2)CC1 (stereo not shown) [Compound 4, N-(4-(3-(4-(trifluoromethyl)phenyl)ureido)cyclohexyl)acetamide] |
|  | > 300 | 96 |  | CS(=O)(=O)NC1CCC(NC(=O)NC23CC4CC(CC(C4)C2)C3)CC1 (stereo not shown) [Compound 5, N-(4-(3-(adamantan-1-yl)ureido)cyclohexyl)methanesulfonamide] |
|  | 269 to 270 |  | 44 | CS(=O)(=O)NC1CCC(NC(=O)c2ccc(F)cc2)CC1 (stereo not shown) [Compound 7, 4-fluoro-N-(4-(methylsulfonamido)cyclohexyl)benzamide] |
|  | 310 to 312 | 98 |  | O=C(NC1CCC(NS(=O)(=O)c2cccc(C(F)(F)F)c2)CC1)NC12CC3CC(CC(C3)C1)C2 (stereo not shown) [Compound 1, N-(4-(3-(adamantan-1-yl)ureido)cyclohexyl)-3-(trifluoromethyl)benzenesulfonamide] |
